Data as given in PubChem BioAssay (NCI).
“And” between values parts separate entries of the source, which are not always exact repeats. Equal values may be shown once.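 96-well plates; 48 h exposure; 5 concentrations. Endpoints by linear interpolation between flanking doses. Not reached: highest tested concentration assigned. TGI marks complete inhibition of growth.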 Where a SMILES comes first, the peptide text is derived from it. The star is where a group is joined. Cbz = O=C(OCc1ccccc1)*

The molecules below were run on SK-MEL-5 melanoma (assay: NCI tumour cell line growth inhibition, 48 h).

| Compound | TGI |
| --- | --- |
| O=C1C=C(Nc2ccc(S(=O)(=O)Nc3nccs3)cc2)c2ccccc2C1=O | 38.7 µM |
| C=CC1(CC[C@]2(c3ccc(OC)c(OC)c3)C=[N+]([O-])O[C@H](O[C@@H]3CCCC[C@H]3C(C)(C)c3ccccc3)C2)OCC(C)(C)CO1 | 28.3 µM |
| Oc1c(Br)ccc2cccnc12 | > 39.2 µM |
| O=c1[nH]c2nc3ccccc3c(=O)n2/c1=C/c1cccs1 | > 100 µM |
| Cc1cc(C)nc(NC(P(=O)(O)O)P(=O)(O)O)n1 | > 100 µM |
| O=C1c2c(Br)sc(Br)c2C(=O)C1(O)O | 42.6 µM |
| O=C1CCSCCC(=O)Nc2ccccc2N1 | > 100 µM |
| COc1ccc(N2C(=O)C(=O)N(c3ccc(N=Nc4ccccc4)cc3)C2=S)cc1 | 30.4 µM |
| CC(=O)SC(C[N+](=O)[O-])c1ccc2c(c1)OCO2 (stereo unspecified) | 19.9 µM |
| Cc1ccc(CSC(N)=Nc2ccccc2)cc1C | 34.9 µM |
| C=C1CCCCCCCCC/C=C/1SCCCSC | > 100 µM |
| COc1cc(Nc2nc3cc(C(F)(F)F)ccc3nc2C(=O)O)cc(OC)c1OC | > 100 µM |
| CCOc1cc(NC(C)=O)ccc1C(=O)NNS(=O)(=O)c1ccc(NC(C)=O)cc1 | 69.3 µM |
| NCCCN(CCCN)CCc1cn(C(=O)c2ccccc2)cn1 | 21 µM |
| CC1(C)O[C@H]2OC(CO)C(N=[N+]=[N-])[C@H]2O1 (stereo partly specified) | > 100 µM |
| Cc1[nH]n(-c2nc(O)c(-c3ccccc3)c(=O)[nH]2)c(=O)c1CCO | > 100 µM |

| Compound | TGI |
| --- | --- |
| C=C1CC[C@H]2C(=O)OC(c3ccoc3)C[C@]2(C)C/C=C\C=C/1C(=O)OC (stereo partly specified) | > 25 µM |
| CC(NC(=O)Cc1ccccc1)NC(=O)C(C)C(=O)NCc1ccccc1 (stereo unspecified) | > 100 µM |
| CCOC(=O)CCC(NC(=O)C(Cc1ccccc1)NC(=O)OCc1ccccc1)C(=O)OCC (stereo not drawn) (Cbz-Phe-Glu(OEt)-OEt; configuration not given here) | 28.8 µM |
| CCCCC1Cc2cc(O)ccc2-c2nc3cc(O)ccc3n21 (stereo unspecified) (tested in a mixture with another compound) | 26.3 µM |
| COC(=O)N[C@H](C(=O)NC(OCc1ccccc1)C1COC(C)(C)O1)C(C)O[Si](C)(C)C(C)(C)C (stereo partly specified) | 65.8 µM |
| CC(=O)c1ccc2c(c1)C(=O)c1sc(C(C)=O)cc1C2=O | 1.89 µM |
| O=Cc1ccc(-c2ccc(-c3ccc(CO)s3)o2)s1 | 17.7 µM |
| CC(=O)Nc1c(C(=N)C#N)ncn1CCO | > 100 µM |
| CN1CCN(/C(N)=C(\C#N)C(=O)Nc2ccc(Cl)cc2)CC1 | > 100 µM |
| O=C(NCCN1CCOCC1)c1ccc(I)cc1 | > 100 µM |
| CN1CCCOC(c2ccc(Cl)cc2)O1 (stereo unspecified) | > 100 µM |
| CCC1CC(O)c2c(O)c3c(c(O)c2C1O)C(=O)c1cccc(O)c1C3=O (stereo unspecified) (tested in a mixture with another compound) | 0.0374 µM and 0.0138 µM |
| COc1ccc(/C(Cl)=C(\C#N)c2ccc(OC)c(OC)c2)cc1OC | > 100 µM |
| CCOC(=O)CCC1(CCC(=O)OCC)CCCCCCCCC(CCC(=O)OCC)(CCC(=O)OCC)C(=O)C1=O | > 100 µM |
| Cc1ccc2c(c1)CC1(Cc3cccc(C)c3C1=O)C2=O (stereo unspecified) | > 100 µM |
| COCn1cnc2c(=O)nc(SC)n(-c3ccccc3)c21 | > 100 µM |

What follows are molecules tested on SNB-75 CNS (assay: NCI tumour cell line growth inhibition, 48 h).

| Compound | TGI |
| --- | --- |
| COc1ccc(CNc2nc(NC3CCCCC3)nc(NC3CCCCC3)n2)cc1 | > 100 µM |
| S=C1NCCN1C(=S)Nc1ccccc1 | > 100 µM |
| CCOC(=O)c1ccc(-c2ccc(Cl)cc2)[nH]1 | > 10 µM |
| CC1CC(Nc2ccc(Br)cc2)N(C(=O)c2ccc(Br)cc2)O1 (stereo unspecified) | > 10 µM |
| OC(C/C=N/N=C/CC(O)(C(F)(F)Cl)C(F)(F)Cl)(C(F)(F)Cl)C(F)(F)Cl | > 10 µM |
| COc1cc2c(cc1O)NC(=O)[C@@H]1CCCN1C2=O | > 100 µM |
| COc1ccc2nc(-c3ccccc3)c(=O)[nH]c2c1 | > 100 µM |
| O=C1C=C(Nc2ccc(S(=O)(=O)Nc3nccs3)cc2)c2ccccc2C1=O | 66.8 µM |
| C=CC1(CC[C@]2(c3ccc(OC)c(OC)c3)C=[N+]([O-])O[C@H](O[C@@H]3CCCC[C@H]3C(C)(C)c3ccccc3)C2)OCC(C)(C)CO1 | > 52.2 µM |
| Oc1c(Br)ccc2cccnc12 | > 100 µM |
| O=c1[nH]c2nc3ccccc3c(=O)n2/c1=C/c1cccs1 | > 100 µM |
| O=C1c2c(Br)sc(Br)c2C(=O)C1(O)O | > 100 µM |
| COc1ccc(N2C(=O)C(=O)N(c3ccc(N=Nc4ccccc4)cc3)C2=S)cc1 | 55.5 µM |
| CC(=O)SC(C[N+](=O)[O-])c1ccc2c(c1)OCO2 (stereo unspecified) | 41.1 µM |
| Cc1ccc(CSC(N)=Nc2ccccc2)cc1C | 63.9 µM |
| COc1cc(Nc2nc3cc(C(F)(F)F)ccc3nc2C(=O)O)cc(OC)c1OC | > 100 µM |
| CCOc1cc(NC(C)=O)ccc1C(=O)NNS(=O)(=O)c1ccc(NC(C)=O)cc1 | > 100 µM |
| NCCCN(CCCN)CCc1cn(C(=O)c2ccccc2)cn1 | 17.7 µM |
| COc1cccc(-c2nc(-c3cnccn3)n(C/C=C/c3ccccc3)n2)c1 | > 10 µM |

| Compound | TGI |
| --- | --- |
| CC1(C)O[C@H]2OC(CO)C(N=[N+]=[N-])[C@H]2O1 (stereo partly specified) | > 100 µM |
| Cc1[nH]n(-c2nc(O)c(-c3ccccc3)c(=O)[nH]2)c(=O)c1CCO | > 100 µM |
| C=C1CC[C@H]2C(=O)OC(c3ccoc3)C[C@]2(C)C/C=C\C=C/1C(=O)OC (stereo partly specified) | > 25 µM |
| CC(NC(=O)Cc1ccccc1)NC(=O)C(C)C(=O)NCc1ccccc1 (stereo unspecified) | > 100 µM |
| CCOC(=O)CCC(NC(=O)C(Cc1ccccc1)NC(=O)OCc1ccccc1)C(=O)OCC (stereo not drawn) (Cbz-Phe-Glu(OEt)-OEt; configuration not given here) | 35.1 µM |
| COC(=O)N[C@H](C(=O)NC(OCc1ccccc1)C1COC(C)(C)O1)C(C)O[Si](C)(C)C(C)(C)C (stereo partly specified) | > 100 µM |
| CC(=O)c1ccc2c(c1)C(=O)c1sc(C(C)=O)cc1C2=O | 6.27 µM and 4.85 µM |
| O=Cc1ccc(-c2ccc(-c3ccc(CO)s3)o2)s1 | 69.1 µM |
| CCOP(=O)(OCC)/C(C#N)=C/c1ccc(-c2cc(C(F)(F)F)cc(C(F)(F)F)c2)o1 | 27.9 µM |
| CC(=O)Nc1c(C(=N)C#N)ncn1CCO | > 100 µM |
| CN1CCN(/C(N)=C(\C#N)C(=O)Nc2ccc(Cl)cc2)CC1 | > 100 µM |
| O=C(NCCN1CCOCC1)c1ccc(I)cc1 | > 100 µM |
| CN1CCCOC(c2ccc(Cl)cc2)O1 (stereo unspecified) | > 100 µM |
| CCC1CC(O)c2c(O)c3c(c(O)c2C1O)C(=O)c1cccc(O)c1C3=O (stereo unspecified) (tested in a mixture with another compound) | 0.049 µM and 0.0426 µM |
| CCOC(=O)CCC1(CCC(=O)OCC)CCCCCCCCC(CCC(=O)OCC)(CCC(=O)OCC)C(=O)C1=O | > 100 µM |
| Cc1ccc2c(c1)CC1(Cc3cccc(C)c3C1=O)C2=O (stereo unspecified) | > 100 µM |
| O=c1[nH]nc(Cc2ccc(Cl)cc2)n1/N=C/c1cccs1 | 49.9 µM |
| COCn1cnc2c(=O)nc(SC)n(-c3ccccc3)c21 | > 100 µM |

What follows are molecules tested on U251 CNS (assay: NCI tumour cell line growth inhibition, 48 h).

| Compound | TGI |
| --- | --- |
| COc1ccc(CNc2nc(NC3CCCCC3)nc(NC3CCCCC3)n2)cc1 | 84.7 µM |
| S=C1NCCN1C(=S)Nc1ccccc1 | > 100 µM |
| CCOC(=O)c1ccc(-c2ccc(Cl)cc2)[nH]1 | > 10 µM |
| OC(C/C=N/N=C/CC(O)(C(F)(F)Cl)C(F)(F)Cl)(C(F)(F)Cl)C(F)(F)Cl | > 10 µM |
| COc1cc2c(cc1O)NC(=O)[C@@H]1CCCN1C2=O | > 100 µM |
| O=C1C=C(Nc2ccc(S(=O)(=O)Nc3nccs3)cc2)c2ccccc2C1=O | 48 µM |
| C=CC1(CC[C@]2(c3ccc(OC)c(OC)c3)C=[N+]([O-])O[C@H](O[C@@H]3CCCC[C@H]3C(C)(C)c3ccccc3)C2)OCC(C)(C)CO1 | > 50.5 µM |
| Oc1c(Br)ccc2cccnc12 | > 100 µM |
| O=c1[nH]c2nc3ccccc3c(=O)n2/c1=C/c1cccs1 | > 100 µM |
| O=C1c2c(Br)sc(Br)c2C(=O)C1(O)O | > 100 µM |
| O=C1CCSCCC(=O)Nc2ccccc2N1 | > 100 µM |
| COc1ccc(N2C(=O)C(=O)N(c3ccc(N=Nc4ccccc4)cc3)C2=S)cc1 | 32.6 µM |
| CC(=O)SC(C[N+](=O)[O-])c1ccc2c(c1)OCO2 (stereo unspecified) | 13 µM |
| Cc1ccc(CSC(N)=Nc2ccccc2)cc1C | 31.6 µM |
| C=C1CCCCCCCCC/C=C/1SCCCSC | > 100 µM |
| COc1cc(Nc2nc3cc(C(F)(F)F)ccc3nc2C(=O)O)cc(OC)c1OC | > 100 µM |
| NCCCN(CCCN)CCc1cn(C(=O)c2ccccc2)cn1 | 30.1 µM |
| COc1cccc(-c2nc(-c3cnccn3)n(C/C=C/c3ccccc3)n2)c1 | > 10 µM |
| CC1(C)O[C@H]2OC(CO)C(N=[N+]=[N-])[C@H]2O1 (stereo partly specified) | > 100 µM |

| Compound | TGI |
| --- | --- |
| Cc1[nH]n(-c2nc(O)c(-c3ccccc3)c(=O)[nH]2)c(=O)c1CCO | > 100 µM |
| C=C1CC[C@H]2C(=O)OC(c3ccoc3)C[C@]2(C)C/C=C\C=C/1C(=O)OC (stereo partly specified) | > 25 µM |
| CC(NC(=O)Cc1ccccc1)NC(=O)C(C)C(=O)NCc1ccccc1 (stereo unspecified) | > 100 µM |
| CCOC(=O)CCC(NC(=O)C(Cc1ccccc1)NC(=O)OCc1ccccc1)C(=O)OCC (stereo not drawn) (Cbz-Phe-Glu(OEt)-OEt; configuration not given here) | 28.9 µM |
| CCCCC1Cc2cc(O)ccc2-c2nc3cc(O)ccc3n21 (stereo unspecified) (tested in a mixture with another compound) | 27.5 µM |
| COC(=O)N[C@H](C(=O)NC(OCc1ccccc1)C1COC(C)(C)O1)C(C)O[Si](C)(C)C(C)(C)C (stereo partly specified) | > 100 µM |
| CC(=O)c1ccc2c(c1)C(=O)c1sc(C(C)=O)cc1C2=O | 50 µM |
| O=Cc1ccc(-c2ccc(-c3ccc(CO)s3)o2)s1 | > 42.1 µM |
| CCOP(=O)(OCC)/C(C#N)=C/c1ccc(-c2cc(C(F)(F)F)cc(C(F)(F)F)c2)o1 | 24.4 µM |
| CC(=O)Nc1c(C(=N)C#N)ncn1CCO | > 100 µM |
| CN1CCN(/C(N)=C(\C#N)C(=O)Nc2ccc(Cl)cc2)CC1 | > 100 µM |
| O=C(NCCN1CCOCC1)c1ccc(I)cc1 | > 100 µM |
| CN1CCCOC(c2ccc(Cl)cc2)O1 (stereo unspecified) | > 100 µM |
| CCC1CC(O)c2c(O)c3c(c(O)c2C1O)C(=O)c1cccc(O)c1C3=O (stereo unspecified) (tested in a mixture with another compound) | 0.23 µM and 0.331 µM |
| COc1ccc(/C(Cl)=C(\C#N)c2ccc(OC)c(OC)c2)cc1OC | > 100 µM |
| CCOC(=O)CCC1(CCC(=O)OCC)CCCCCCCCC(CCC(=O)OCC)(CCC(=O)OCC)C(=O)C1=O | > 100 µM |
| Cc1ccc2c(c1)CC1(Cc3cccc(C)c3C1=O)C2=O (stereo unspecified) | > 100 µM |
| O=c1[nH]nc(Cc2ccc(Cl)cc2)n1/N=C/c1cccs1 | > 100 µM |
